Patent publication US20110086063A1, “VACCINES FOR PREVENTION AND TREATMENT OF ADDICTION” (priority 2008, published 2011)
Where two headings read alike, the source gives them in different places.

Columns and labels:
[1] = Stability of cocaine hapten
[2] = target: T1, dopamine transporters (DAT) (Homo sapiens, UniProt Q01959); settings: human cocaine abusers; cited from earlier work
T1 construct: In human cocaine abusers, at least 47% of the DAT needs to be occupied; host or cells: human brain, in vivo
T1 sequence (Q01959 whole entry): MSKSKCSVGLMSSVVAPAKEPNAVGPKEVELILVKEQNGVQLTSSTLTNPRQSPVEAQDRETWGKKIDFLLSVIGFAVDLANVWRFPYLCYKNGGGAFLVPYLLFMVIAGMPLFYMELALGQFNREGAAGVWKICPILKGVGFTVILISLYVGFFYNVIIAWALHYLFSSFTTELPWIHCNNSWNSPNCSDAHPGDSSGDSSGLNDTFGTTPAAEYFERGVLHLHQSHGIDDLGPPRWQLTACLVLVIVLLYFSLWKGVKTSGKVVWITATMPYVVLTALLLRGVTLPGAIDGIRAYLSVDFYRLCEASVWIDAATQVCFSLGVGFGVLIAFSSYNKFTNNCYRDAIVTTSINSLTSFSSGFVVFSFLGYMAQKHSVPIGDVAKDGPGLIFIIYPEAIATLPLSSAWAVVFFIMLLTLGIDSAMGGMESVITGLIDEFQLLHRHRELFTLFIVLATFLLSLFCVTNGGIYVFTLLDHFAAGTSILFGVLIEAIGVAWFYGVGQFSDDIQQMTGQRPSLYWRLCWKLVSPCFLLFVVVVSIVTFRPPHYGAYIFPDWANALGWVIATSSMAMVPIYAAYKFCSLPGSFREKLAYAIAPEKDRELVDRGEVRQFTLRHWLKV

female rhesus monkeys = assay: Cocaine and candy self-administration choice in female rhesus monkeys; type: in vivo; settings: representative female monkey; either dose of cocaine available (FIG. 5)
From the text: FIG. 5 is a bar graph depicting cocaine and candy self-administration in female rhesus monkeys. The data is presented as a function of cocaine dose available.
A non-human primate model of intravenous cocaine self-administration will be used to determine if vaccination with Ad-cocaine decreases drug taking, which will likely provide the best predictor of clinical efficacy. To control for nonselective effects, monkeys will be trained to self-administer cocaine and candy, using a choice procedure. If the vaccine is effective at blocking the effects of cocaine, monkeys should decrease the number of cocaine choices self-administered and correspondingly increase the number of candy choices. A non-specific effect would be evidenced by a decrease in both cocaine and candy choices. After all monkeys have been trained to enter the primate chair and respond on the levers for candy, they will have vascular access port surgery (VAP). For self-administration sessions, monkeys will be placed into custom-built primate chairs, moved to the workstation, and connected to the infusion apparatus. Sessions will be conducted five days per week. Monkeys will initially be trained to self-administer 0.1 mg/kg cocaine per infusion. Once responding is stable, the cocaine dose available will be 0.05 mg/kg/infusion. […]

[3] = target: T2, dopamine transporters (DAT) (Macaca mulatta, UniProt Q7JHP9); settings: rhesus monkeys, cited from earlier work
T2 construct: In rhesus monkeys, doses of 0.1 and 1.0 mg/kg cocaine occupy 53% and 87% of the DAT; host or cells: rhesus monkey brain, in vivo
T2 sequence (Q7JHP9 1-620): as the sequence (Q01959 whole entry) above, with V24M, I137V, P194S, S198G, D200N, S201G, S202P counted along it

Structure (SMILES)	stability relative to GNC [1]	DAT occupancy needed to perceive the subjective effects of cocaine [2]	choice between i.v. cocaine and candy (female rhesus monkeys)	occupancy of the DAT ([3]; 0.1 mg/kg cocaine)	occupancy of the DAT ([3]; 1.0 mg/kg cocaine)
CN1C2CCC1[C@@H](C(=O)NCCCCCC(=O)O)[C@@H](OC(=O)c1ccccc1)C2 (some centres unmarked) [GNE]	more stable than GNC				
COC(=O)[C@@H]1C2CCC(C[C@@H]1OC(=O)c1ccccc1)N2C (some centres unmarked) [cocaine]		at least 47%	exclusively chose cocaine over candy	53%	87%
